Measurements published in patent publication US20240317706A1, “COMPOUNDS THAT MEDIATE PROTEIN DEGRADATION AND METHODS OF USE THEREOF” (Monte Rosa Therapeutics, Inc., priority 2021, published 2024).

Tests used:
CDK2 = target: T1, CDK2 (Homo sapiens, UniProt P24941); test: HiBiT assay (CDK2 degradation); assay type: cell-based; details: HEK293 clonal line with CRISPR KI HiBiT tag on CDK2, 24 hours, HiBiT Lysis Reagent
T1 construct: HEK293 clonal lines with CRISPR KI HiBiT tag on CDK2 proteins; host or cells: HEK293 clonal line, CRISPR knock-in HiBiT-CDK2, stably expressing LgBiT
Protocol: HEK293 clonal lines with CRISPR KI HiBiT tag on CDK2 proteins and stably expressing LgBiT protein were obtained from Promega (Madison, WI). Cells were plated at 5000 cells per well using Multiflo (BioTek) in 384-well white solid bottom plates (Corning, 3570BC) in 25 ul volume in DMEM media (DMEM, high glucose, HEPES, no phenol red (ThermoFisher Scientific, 21063029)) containing 10% FBS (Corning, 35-075-CV), 1% Penicillin/Streptomycin (ThermoFisher Scientific, 15140-122). Cells were incubated for 16 hours at 37° C., 5% CO2. 75 nL of a compound at 30 μM were dosed into the plate using an Echo® 650 liquid handler (Labcyte). Cells were incubated at 37° C., 5% CO2 for 24 hours. 5 ul of HiBiT Lysis Reagent (Promega, N3030) is added using Combi Multidrop (ThermoFisher Scientific), plates are incubated for 15′ at 37° C., 5% CO2 and then signal was read on a Pherastar FSX using “LUM plus” optic module.
Analysis was performed in Scinamic (Scinamic, Cambridge, MA). Luminescence response (R) was calculated by the formula: response=100*(S−N)/(P−N) where S is the signal of the well, N and P the mean negative and positive control values respectively of the same plate. The luminescence response was then fitted in Scinamic using a 3-parameter agonist logistic fit (hillslope=1, EC50>0, top/bottom unconstrained).

CRBN-DDB1 = CRBN-DDB1 (Homo sapiens, UniProt Q96SW2); test: Compound binding to CRBN by HTRF assay; details: CRBN-DDB1 2.5 nM, Cy5-Thalidomide 100 nM, 30 min; Ki from geometric mean IC50 by Cheng-Prustoff transformation
How it was run: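 HTRF displacement of Cy5-thalidomide probe (100 nM) from His-CRBN-DDB1 (2.5 nM) with anti-His terbium cryptate, in HEPES/NaCl/TCEP/EDTA/Tween20 buffer. 10-point 1:3 compound series, 30 min at ambient temperature; signal normalised to DMSO and lenalidomide controls, IC50 fitted and Ki derived by Cheng-Prusoff.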

CRBN-DDB1, sequence (Q96SW2 whole entry): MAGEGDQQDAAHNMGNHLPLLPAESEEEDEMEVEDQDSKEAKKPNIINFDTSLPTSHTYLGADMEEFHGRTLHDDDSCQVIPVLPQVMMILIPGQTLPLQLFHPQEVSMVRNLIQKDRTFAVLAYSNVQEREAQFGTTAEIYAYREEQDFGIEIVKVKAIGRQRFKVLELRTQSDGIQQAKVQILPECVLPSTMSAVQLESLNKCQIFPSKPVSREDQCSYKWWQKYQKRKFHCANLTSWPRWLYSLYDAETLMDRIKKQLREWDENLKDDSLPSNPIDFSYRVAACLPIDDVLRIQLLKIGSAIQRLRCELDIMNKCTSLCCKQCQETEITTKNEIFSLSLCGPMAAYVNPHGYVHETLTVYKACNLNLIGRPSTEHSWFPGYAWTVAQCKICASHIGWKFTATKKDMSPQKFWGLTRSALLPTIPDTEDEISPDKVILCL
CRBN-DDB1, sequence (Q16531 whole entry partner): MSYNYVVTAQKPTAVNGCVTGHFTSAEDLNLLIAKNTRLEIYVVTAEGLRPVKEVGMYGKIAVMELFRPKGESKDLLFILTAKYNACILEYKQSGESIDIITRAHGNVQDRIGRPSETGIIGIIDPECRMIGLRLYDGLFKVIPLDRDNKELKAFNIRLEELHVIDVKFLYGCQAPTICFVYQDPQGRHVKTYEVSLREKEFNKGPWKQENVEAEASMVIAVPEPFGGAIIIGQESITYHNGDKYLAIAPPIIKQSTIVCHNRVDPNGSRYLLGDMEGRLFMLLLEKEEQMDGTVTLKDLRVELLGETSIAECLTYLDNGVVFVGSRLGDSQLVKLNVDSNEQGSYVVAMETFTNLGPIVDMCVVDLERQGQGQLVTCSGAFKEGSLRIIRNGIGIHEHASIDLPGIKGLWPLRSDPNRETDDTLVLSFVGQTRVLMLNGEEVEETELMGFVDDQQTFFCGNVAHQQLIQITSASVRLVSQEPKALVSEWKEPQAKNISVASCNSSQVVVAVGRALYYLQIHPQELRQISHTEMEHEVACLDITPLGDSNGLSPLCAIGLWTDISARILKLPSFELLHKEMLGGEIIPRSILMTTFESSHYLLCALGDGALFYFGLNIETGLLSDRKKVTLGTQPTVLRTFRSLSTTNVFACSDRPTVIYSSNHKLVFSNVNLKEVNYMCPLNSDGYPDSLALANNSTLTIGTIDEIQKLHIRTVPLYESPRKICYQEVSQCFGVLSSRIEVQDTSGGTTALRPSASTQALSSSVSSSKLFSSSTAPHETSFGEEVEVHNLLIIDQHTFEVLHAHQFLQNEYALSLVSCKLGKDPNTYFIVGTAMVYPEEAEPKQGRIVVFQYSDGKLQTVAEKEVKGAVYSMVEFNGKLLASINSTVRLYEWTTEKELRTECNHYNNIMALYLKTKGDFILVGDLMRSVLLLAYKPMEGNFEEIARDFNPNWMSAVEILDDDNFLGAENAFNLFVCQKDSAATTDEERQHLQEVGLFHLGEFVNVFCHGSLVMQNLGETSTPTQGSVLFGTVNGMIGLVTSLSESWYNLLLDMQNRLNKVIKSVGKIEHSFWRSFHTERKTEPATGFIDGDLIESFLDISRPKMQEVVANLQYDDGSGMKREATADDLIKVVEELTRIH

SMILES	Dmax (CDK2)	Ki (CRBN-DDB1)
CO[C@H]1C[C@@H](OC(=O)NCc2ccc3c(c2)C(=O)N(C2CCC(=O)NC2=O)C3)C1 (stereo partly drawn) [Compound 23, (1s,3s)-3-methoxycyclobutyl N-{[2-(2,6-dioxopiperidin-3-yl)-3-oxo-2,3-dihydro-1H-isoindol-5-yl]methyl}carbamate]	≤ 10%	100 to 1000 nM
O=C1CCC(N2Cc3ccc(CNC(=O)OC4CC4)cc3C2=O)C(=O)N1 (stereo not drawn) [Compound 14, cyclopropyl N-{[2-(2,6-dioxopiperidin-3-yl)-3-oxo-2,3-dihydro-1H-isoindol-5-yl]methyl}carbamate]	10 to 50%	100 to 1000 nM
O=C1CCC(N2Cc3ccc(CNC(=O)OCC4CC5(CCC5)C4)cc3C2=O)C(=O)N1 (stereo not drawn) [Compound 2, spiro[3.3]heptan-2-ylmethyl ((2-(2,6-dioxopiperidin-3-yl)-3-oxoisoindolin-5-yl)methyl)carbamate]	50 to 80%	100 to 1000 nM
O=C1CCC(N2Cc3ccc(CNC(=O)OC4CC5(CCOCC5)C4)cc3C2=O)C(=O)N1 (stereo not drawn) [Compound 90, 7-oxaspiro[3.5]nonan-2-yl N-{[2-(2,6-dioxopiperidin-3-yl)-3-oxo-2,3-dihydro-1H-isoindol-5-yl]methyl}carbamate]	10 to 50%	100 to 1000 nM
O=C1CCC(N2Cc3ccc(CNC(=O)O[C@@H]4CO[C@@H]4c4ccccc4)cc3C2=O)C(=O)N1 (mixture of isomers) [Compound 37, rac-(2R,3R)-2-phenyloxetan-3-yl N-{[2-(2,6-dioxopiperidin-3-yl)-3-oxo-2,3-dihydro-1H-isoindol-5-yl]methyl}carbamate]	≤ 10%	100 to 1000 nM
O=C1CCC(N2Cc3ccc(CNC(=O)OC4CC5(CCC5)C4)cc3C2=O)C(=O)N1 (stereo not drawn) [Compound 3, spiro[3.3]heptan-2-yl ((2-(2,6-dioxopiperidin-3-yl)-3-oxoisoindolin-5-yl)methyl)carbamate]	10 to 50%	100 to 1000 nM
CC(C)(C)C1CC(OC(=O)NCc2ccc3c(c2)C(=O)N(C2CCC(=O)NC2=O)C3)C1 (stereo not drawn) [Compound 84, 3-tert-butylcyclobutyl N-{[2-(2,6-dioxopiperidin-3-yl)-3-oxo-2,3-dihydro-1H-isoindol-5-yl]methyl}carbamate]	50 to 80%	100 to 1000 nM

More lines, now with the values ahead:

Dmax (CDK2)	Ki (CRBN-DDB1)	SMILES
10 to 50%	100 to 1000 nM	COC1CC(COC(=O)NCc2ccc3c(c2)C(=O)N(C2CCC(=O)NC2=O)C3)C1 (stereo not drawn) [Compound 66, (3-methoxycyclobutyl)methyl N-{[2-(2,6-dioxopiperidin-3-yl)-3-oxo-2,3-dihydro-1H-isoindol-5-yl]methyl}carbamate]
10 to 50%	100 to 1000 nM	CC1(C)CCC1OC(=O)NCc1ccc2c(c1)C(=O)N(C1CCC(=O)NC1=O)C2 (stereo not drawn) [Compound 24, 2,2-dimethylcyclobutyl N-{[2-(2,6-dioxopiperidin-3-yl)-3-oxo-2,3-dihydro-1H-isoindol-5-yl]methyl}carbamate]
≤ 10%	≤ 100 nM	O=C1CCC(N2Cc3ccc(CNC(=O)OCC4OCCc5ccccc54)cc3C2=O)C(=O)N1 (stereo not drawn) [Compound 19, (3,4-dihydro-1H-2-benzopyran-1-yl)methyl N-{[2-(2,6-dioxopiperidin-3-yl)-3-oxo-2,3-dihydro-1H-isoindol-5-yl]methyl}carbamate]
10 to 50%	≤ 100 nM	CC1(COC(=O)NCc2ccc3c(c2)C(=O)N(C2CCC(=O)NC2=O)C3)CCCCO1 (stereo not drawn) [Compound 64, (2-methyloxan-2-yl)methyl N-{[2-(2,6-dioxopiperidin-3-yl)-3-oxo-2,3-dihydro-1H-isoindol-5-yl]methyl}carbamate]
10 to 50%	≤ 100 nM	O=C1CCC(N2Cc3ccc(CNC(=O)OCC4CCOC4)cc3C2=O)C(=O)N1 (stereo not drawn) [Compound 43, (oxolan-3-yl)methyl N-{[2-(2,6-dioxopiperidin-3-yl)-3-oxo-2,3-dihydro-1H-isoindol-5-yl]methyl}carbamate]
